# Laboratory results: patent publication US9765092B2, “Tricyclic piperidine compounds” (ACTELION PHARMACEUTICALS LTD, priority 2013, dated 2017)
# pIC50: −log10 of the molar value.
# Molecular target: human TPH1 (Homo sapiens (Human), UniProt P17752)
# Test: Biochemical in vitro assay using fluorescence readout (TPH1 inhibition)
# Details: human TPH1, fluorescence readout
# Sequence of human TPH1 (P17752 whole entry): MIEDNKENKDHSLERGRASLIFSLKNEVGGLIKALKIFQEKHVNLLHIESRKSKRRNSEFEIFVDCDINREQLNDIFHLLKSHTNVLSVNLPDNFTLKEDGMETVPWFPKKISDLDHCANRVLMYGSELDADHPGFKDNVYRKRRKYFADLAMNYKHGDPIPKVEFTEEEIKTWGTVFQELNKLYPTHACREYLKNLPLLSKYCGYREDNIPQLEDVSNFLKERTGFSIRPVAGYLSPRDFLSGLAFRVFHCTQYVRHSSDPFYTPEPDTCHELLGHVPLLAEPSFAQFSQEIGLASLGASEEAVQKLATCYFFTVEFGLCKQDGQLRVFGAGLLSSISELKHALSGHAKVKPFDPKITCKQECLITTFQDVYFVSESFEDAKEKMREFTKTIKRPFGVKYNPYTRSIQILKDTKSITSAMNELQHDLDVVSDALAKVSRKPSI
row,Structure (SMILES),pIC50
1,"Cc1nn2c3c(nc2s1)CCN(C(=O)COc1ccc(N2CCOCC2)nc1Cl)C3c1cnc(OC(F)F)cc1C (stereo not shown) [Example 1.15.2, 2-((2-chloro-6-morpholinopyridin-3-yl)oxy)-1-(5-(6-(difluoromethoxy)-4-methylpyridin-3-yl)-2-methyl-7,8-dihydro-[1,3,4]thiadiazolo[2′,3′:2,3]imidazo[4,5-c]pyridin-6(5H)-yl)ethanone]",8.15
2,"CCc1nc(C)ccc1OCC(=O)N1CCc2nc3sc(C)nn3c2C1c1cnc(OC(F)F)cc1C (stereo not shown) [Example 1.15.3, 1-(5-(6-(difluoromethoxy)-4-methylpyridin-3-yl)-2-methyl-7,8-dihydro-[1,3,4]thiadiazolo[2′,3′:2,3]imidazo[4,5c]pyridin-6(5H)-yl)-2-((2-ethyl-6-methylpyridin-3-yl)oxy)ethanone]",6.81
3,"Cc1nn2c3c(nc2s1)CCN(C(=O)COc1ccc(N(C)C)nc1Cl)C3c1ccc(Cl)nc1F (stereo not shown) [Example 1.16.1, 1-(5-(6-chloro-2-fluoropyridin-3-yl)-2-methyl-7,8-dihydro-[1,3,4]thiadiazolo[2′,3′:2,3]imidazo[4,5-c]pyridin-6(5H)-yl)-2-((2-chloro-6-(dimethylamino)pyridin-3-yl)oxy)ethanone]",8.30
4,"Cc1nn2c3c(nc2s1)CCN(C(=O)COc1ccc(S(N)(=O)=O)cc1C)C3c1ccc(Cl)nc1F (stereo not shown) [Example 1.16.2, 4-(2-(5-(6-chloro-2-fluoropyridin-3-yl)-2-methyl-7,8-dihydro-[1,3,4]thiadiazolo[2′,3′:2,3]imidazo[4,5-c]pyridin-6(5H)-yl)-2-oxoethoxy)-3-methylbenzenesulfonamide]",7.13
5,"CNc1ccc(OCC(=O)N2CCc3nc4sc(C)nn4c3C2c2ccc(Cl)nc2F)c(Cl)n1 (stereo not shown) [Example 1.16.3, 1-(5-(6-chloro-2-fluoropyridin-3-yl)-2-methyl-7,8-dihydro-[1,3,4]thiadiazolo[2′,3′:2,3]imidazo[4,5-c]pyridin-6(5H)-yl)-2-((2-chloro-6-(methylamino)pyridin-3-yl)oxy)ethanone]",8.10
6,"Cc1nn2c3c(nc2s1)CCN(C(=O)COc1ccc(C(F)(F)F)nc1Cl)C3c1ccc(Cl)nc1F (stereo not shown) [Example 1.16.4, 1-(5-(6-chloro-2-fluoropyridin-3-yl)-2-methyl-7,8-dihydro-[1,3,4]thiadiazolo[2′,3′:2,3]imidazo[4,5-c]pyridin-6(5H)-yl)-2-((2-chloro-6-(trifluoromethyl)pyridin-3-yl)oxy)ethanone]",7.57
7,"Cc1nn2c3c(nc2s1)CCN(C(=O)COc1ccc(C#N)nc1Cl)C3c1ccc(Cl)nc1F (stereo not shown) [Example 1.16.5, 6-chloro-5-(2-(5-(6-chloro-2-fluoropyridin-3-yl)-2-methyl-7,8-dihydro-[1,3,4]thiadiazolo[2′,3′:2,3]imidazo[4,5-c]pyridin-6(5H)-yl)-2-oxoethoxy)picolinonitrile]",7.46
8,"Cc1nn2c3c(nc2s1)CCN(C(=O)COc1ccc(C(F)(F)F)cc1Cl)C3c1ccc(Cl)nc1F (stereo not shown) [Example 1.16.7, 1-(5-(6-chloro-2-fluoropyridin-3-yl)-2-methyl-7,8-dihydro-[1,3,4]thiadiazolo[2′,3′:2,3]imidazo[4,5-c]pyridin-6(5H)-yl)-2-(2-chloro-4-(trifluoromethyl)phenoxy)ethanone]",8.30
9,"Cc1nn2c3c(nc2s1)CCN(C(=O)COc1ccc(N2CCOCC2)nc1Cl)C3c1nc(CN(C)C)cs1 (stereo not shown) [Example 1.17.1, 2-((2-chloro-6-morpholinopyridin-3-yl)oxy)-1-(5-(4-((dimethylamino)methyl)thiazol-2-yl)-2-methyl-7,8-dihydro-[1,3,4]thiadiazolo[2′,3′:2,3]imidazo[4,5-c]pyridin-6(5H)-yl)ethanone]",7.21
10,"Cc1nn2c3c(nc2s1)CCN(C(=O)COc1ccc(N2CCOCC2)nc1Cl)C3c1nc(C(=O)N(C)C)cs1 (stereo not shown) [Example 1.18.1, 2-(6-(2-((2-chloro-6-morpholinopyridin-3-yl)oxy)acetyl)-2-methyl-5,6,7,8-tetrahydro-[1,3,4]thiadiazolo[2′,3′:2,3]imidazo[4,5-c]pyridin-5-yl)-N,N-dimethylthiazole-4-carboxamide]",7.85
